Earlier results as cited in patent publication US20140255982A1, “METHOD OF CANCER DIAGNOSIS USING THE ANALYSIS OF ISOTOPES” (priority 2007, published 2014).

Key:
[1] = system: microorganisms; details: deuterium in the form of D2O
[2] = system: rats; details: within 5 days; deuterium in the form of D2O

For [2H]O[2H] [D2O], the “inhibitory activity against microorganisms” value [1] is given as 92% and the “kill rate of rats” value [2] is given as 99.5%.
